From patent publication US20190053492A1, “SUBSTITUTED PYRIDINE COMPOUNDS AS PESTICIDES” (Bayer CropScience Aktiengesellschaft, priority 2016, published 2019) come the findings set out here.

Read-outs that look alike come from different tables or passages of the source.

For one data set, the system named is Spodoptera frugiperda. Put plainly: Spodoptera frugiperda spray test. Type of data set: in vivo. The conditions noted are these: after 7 days, maize leaf discs. The method, then: Spodoptera frugiperda—Spray Test
Solvent: 78.0 parts by weight of acetone • • 1.5 parts by weight of dimethylformamide
Emulsifier: alkylaryl polyglycol ether
To produce a suitable active ingredient formulation, 1 part by weight of active ingredient is dissolved with the specified parts by weight of solvent and made up with water containing an emulsifier concentration of 1000 ppm until the desired concentration is attained. To produce further test concentrations, the formulation is diluted with emulsifier-containing water.
Leaf discs of maize (Zea mays) are sprayed with an active ingredient formulation of the desired concentration and, after drying, populated with caterpillars of the armyworm (Spodoptera frugiperda).
After 7 days, the efficacy in % is determined. 100% means that all the caterpillars have been killed; 0% means that no caterpillar has been killed.

Data set [1] in a line: log P by HPLC on reversed-phase column (C 18), EEC Directive 79/831 Annex V.A8. Conditions: 55° C.; for LOGP_HCOOH: log P (HCOOH); for LOGP_NEUTRAL: log P, neutral range; for chromatographic logP: reversed-phase HPLC column (C 18). The data set is classed as physicochemical. On the procedure: Temperature: 55° C. […] Called log P (HCOOH) in the table. […] Called log P (neutral) in the table.

The mark [2] stands for this setting: acidic range pH 2.7, 0.1% aqueous formic acid and acetonitrile, reversed-phase column (C 18).
[3] abbreviates: HPLC on reversed-phase column (C 18).
The mark [4] stands for this setting: acidic range at pH 2.7, 0.1% aqueous formic acid and acetonitrile, HPLC on reversed-phase column (C 18).

For the compound `O=C(NC1CCC1)c1cc(-c2ccc(C(F)(F)F)cc2)cc(NC(=O)C2CC2)n1` [Example I-033], the “efficacy (caterpillars killed)” value in the data set on Spodoptera frugiperda (application rate 500 g/ha) is listed as 100%. The compound also gave an LOGP_HCOOH in data set [1] (setting [2]) of 3.88. Moreover, the LOGP_NEUTRAL in data set [1] (setting [3]) was determined as 3.80.
The like results for `CN(C(=O)c1cc(-c2ccc(C(F)(F)F)cc2)cc(NC(=O)C2CC2)n1)c1cccnc1` [Example I-034] were, in that order, 100%, 2.73 and 2.72.
For `N#Cc1ccc(CCNC(=O)c2cc(-c3ccc(C(F)(F)F)cc3)cc(NC(=O)C3CC3)n2)cc1` [Example I-046], in the data set with Spodoptera frugiperda (application rate 500 g/ha), the “efficacy (caterpillars killed)” value stood at 83%. The LOGP_HCOOH in data set [1] (setting [2]) stood at 3.80. For the same compound, in data set [1] (setting [3]), the LOGP_NEUTRAL turned out to be 3.76.
With `N#Cc1ccc(CNC(=O)c2cc(-c3ccc(C(F)(F)F)cc3)cc(NC(=O)c3ccccc3Cl)n2)cc1` [Example I-047], the “efficacy (caterpillars killed)” value in the data set with Spodoptera frugiperda (application rate 500 g/ha) is 83%. The same compound registered an LOGP_HCOOH in data set [1] (setting [2]) of 4.26. In addition, the LOGP_NEUTRAL in data set [1] (setting [3]) came to 4.15.
Take `O=C(NCC1CCC1)c1cc(-c2ccc(C(F)(F)F)cc2)cc(NC(=O)C2CC2)n1` [Example I-049]: the “efficacy (caterpillars killed)” value with Spodoptera frugiperda (application rate 500 g/ha) was 83%. In addition, the LOGP_HCOOH in data set [1] (setting [2]) was determined as 4.21. This compound registered an LOGP_NEUTRAL in data set [1] (setting [3]) of 4.10.
The like results for `O=C(NCc1ccc(C(F)(F)F)cc1F)c1cc(-c2ccc(C(F)(F)F)cc2)cc(NC(=O)C2CC2)n1` [Example I-054] were, in that order, 100%, 4.68 and 4.59.
On to `O=C(NCCCc1ccc(C(F)(F)F)cc1)c1cc(-c2ccc(C(F)(F)F)cc2)cc(NC(=O)C2CC2)n1` [Example I-058], for which the “efficacy (caterpillars killed)” value with Spodoptera frugiperda (application rate 500 g/ha) was 100%. Further, the LOGP_HCOOH in data set [1] (setting [2]) amounted to 4.94. Besides, in data set [1] (setting [3]), the LOGP_NEUTRAL came to 4.79.
Take `O=C(NCc1cc(F)c(Cl)cc1Cl)c1cc(-c2ccc(C(F)(F)F)cc2)cc(NC(=O)C2CC2)n1` [Example I-059]: in the data set on Spodoptera frugiperda (application rate 500 g/ha), the “efficacy (caterpillars killed)” value was 100%. The compound further displayed an LOGP_HCOOH in data set [1] (setting [2]) of 5.09. This compound also showed an LOGP_NEUTRAL in data set [1] (setting [3]) of 4.93.
On to `O=C(NCc1ccc(Cl)c(F)c1)c1cc(-c2ccc(OC(F)(F)F)cc2)cc(NC(=O)C2CC2)n1` [Example I-062], for which the “efficacy (caterpillars killed)” value was determined as 83% in the data set with Spodoptera frugiperda (application rate 100 g/ha) and 100% in the data set with Spodoptera frugiperda (application rate 500 g/ha). Moreover, the LOGP_HCOOH in data set [1] (setting [2]) was determined as 4.67. Besides, in data set [1] (setting [3]), the LOGP_NEUTRAL is 4.53.
For `O=C(NCc1cc(F)c(Cl)cc1Cl)c1cc(-c2ccc(OC(F)(F)F)cc2)cc(NC(=O)C2CC2)n1` [Example I-063], the “efficacy (caterpillars killed)” value with Spodoptera frugiperda (application rate 500 g/ha) amounted to 100%. The same compound yielded an LOGP_HCOOH in data set [1] (setting [2]) of 5.20. The LOGP_NEUTRAL in data set [1] (setting [3]) is reported as 5.07.
Consider `COc1ccc(CNC(=O)c2cc(-c3ccc(OC(F)(F)F)cc3)cc(NC(=O)C3CC3)n2)cc1` [Example I-083], for which the “efficacy (caterpillars killed)” value amounted to 83% in the data set on Spodoptera frugiperda (application rate 100 g/ha) and 100% with Spodoptera frugiperda (application rate 500 g/ha). This compound showed an LOGP_HCOOH in data set [1] (setting [2]) of 4.22. Also, the LOGP_NEUTRAL in data set [1] (setting [3]) is 4.05.
With `Cn1ncc2cccc(CNC(=O)c3cc(-c4ccc(OC(F)(F)F)cc4)cc(NC(=O)C4CC4)n3)c21` [Example I-092], the “efficacy (caterpillars killed)” value with Spodoptera frugiperda (application rate 500 g/ha) came out at 100%. This compound also gave an LOGP_HCOOH in data set [1] (setting [2]) of 3.81. The LOGP_NEUTRAL in data set [1] (setting [3]) stood at 3.67.
With `N#Cc1ccc(CNC(=O)c2cc(-c3ccc(OC(F)(F)F)c(F)c3)cc(NC(=O)C3CC3)n2)cc1` [Example I-121], the “efficacy (caterpillars killed)” value with Spodoptera frugiperda (application rate 100 g/ha) was 83%; in the data set with Spodoptera frugiperda (application rate 500 g/ha) it was 100%. In data set [1] (setting [4]), this compound displayed an LOGP_HCOOH of 3.94. The LOGP_NEUTRAL in data set [1] (setting [3]) came to 3.83.
The like results for `N#Cc1ccc(CNC(=O)c2cc(-c3ccc(OC(F)(F)F)cc3Cl)cc(NC(=O)C3CC3)n2)cc1` [Example I-122] were, in that order, 100%, 100%, 4.18 and 3.99.
As for `N#CC1(NC(=O)c2cc(-c3ccc(OC(F)(F)F)cc3)cc(NC(=O)C3CC3)n2)CCOCC1` [Example I-134], the “efficacy (caterpillars killed)” value in the data set with Spodoptera frugiperda (application rate 100 g/ha) was determined as 83%; in the data set on Spodoptera frugiperda (application rate 500 g/ha), 100%. For the same compound, in data set [1] (setting [4]), the LOGP_HCOOH came to 3.58.
Take `COC(=O)C(C)NC(=O)c1cc(-c2ccc(OC(F)(F)F)cc2)cc(NC(=O)C2CC2)n1` (stereo not drawn) [Example I-136]: in the data set on Spodoptera frugiperda (application rate 500 g/ha), the “efficacy (caterpillars killed)” value was found to be 100%. In data set [1] (setting [4]), this compound displayed an LOGP_HCOOH of 3.68.
`CCC(C#N)(CC)NC(=O)c1cc(-c2ccc(OC(F)(F)F)cc2)cc(NC(=O)C2CC2)n1` [Example I-139]: the “efficacy (caterpillars killed)” value in the data set on Spodoptera frugiperda (application rate 500 g/ha) came to 100%. This compound came in with an LOGP_HCOOH in data set [1] (setting [4]) of 4.28.
Turning to `N#Cc1ccc(CNC(=O)c2cc(-c3ccc(C(F)(F)F)nc3F)cc(NC(=O)C3CC3)n2)cc1` [Example I-143], the “efficacy (caterpillars killed)” value in the data set with Spodoptera frugiperda (application rate 100 g/ha) amounted to 100%. In data set [1] (setting [4]), this compound registered an LOGP_HCOOH of 3.24.
Turning to `CCc1cc(C(F)(F)C(F)(F)F)cc(C)c1-c1cc(NC(=O)C2CC2)nc(C(=O)NCc2ccc(C#N)cc2)c1` [Example I-148, N-(4-Cyanobenzyl)-6-[(cyclopropylcarbonyl)amino]-4-[2-ethyl-6-methyl-4-(pentafluoroethyl)phenyl]pyridine-2-carboxamide], in the data set on Spodoptera frugiperda (Spodoptera frugiperda, foliar, 168 h, application rate 500 g/ha, read-out: efficacy (caterpillars killed)), the pest or weed control at 500 g/ha stood at 100%. In addition, the LOGP_HCOOH in data set [1] (setting [4]) is reported as 4.85. The LOGP_NEUTRAL in data set [1] (setting [3]) turned out to be 4.72. The chromatographic logP in data set [1] (pH 2.7, LC-MS acidic range, pH 2.7, 0.1% formic acid/acetonitrile, read-out: log P (acidic) / log P (HCOOH)) was found to be 4.85; in data set [1] (pH 7.8, LC-MS neutral range, pH 7.8, ammonium hydrogencarbonate/acetonitrile, read-out: log P (neutral)), 4.72.
In the case of `O=C(NCC1CCC(C(F)(F)F)CC1)c1cc(-c2ccc(OC(F)(F)F)cc2)cc(NC(=O)C2CC2)n1` (stereo not drawn) [Example I-156], the “efficacy (caterpillars killed)” value in the data set with Spodoptera frugiperda (application rate 100 g/ha) and with Spodoptera frugiperda (application rate 500 g/ha) was 100% throughout. Moreover, the LOGP_HCOOH in data set [1] (setting [4]) was 4.97. This compound gave an LOGP_NEUTRAL in data set [1] (setting [3]) of 4.85.
In the case of `CC1(NC(=O)c2cc(-c3ccc(OC(F)(F)F)cc3)cc(NC(=O)C3CC3)n2)CSC1` [Example I-163], the “efficacy (caterpillars killed)” value with Spodoptera frugiperda (application rate 500 g/ha) came to 100%. Further, the LOGP_HCOOH in data set [1] (setting [4]) is 4.32. In data set [1] (setting [3]), this compound displayed an LOGP_NEUTRAL of 4.24.
For the compound `N#Cc1ccc2c(c1)CCC2NC(=O)c1cc(-c2ccc(OC(F)(F)F)cc2)cc(NC(=O)C2CC2)n1` (stereo not drawn) [Example I-164], the “efficacy (caterpillars killed)” value with Spodoptera frugiperda (application rate 100 g/ha) and in the data set with Spodoptera frugiperda (application rate 500 g/ha) was 100% in each case. In data set [1] (setting [4]), this compound displayed an LOGP_HCOOH of 4.42. The LOGP_NEUTRAL in data set [1] (setting [3]) came to 4.24.
Regarding `N#Cc1ccc2[nH]nc(NC(=O)c3cc(-c4ccc(OC(F)(F)F)cc4)cc(NC(=O)C4CC4)n3)c2c1` [Example I-166], the “efficacy (caterpillars killed)” value in the data set with Spodoptera frugiperda (application rate 500 g/ha) came out at 83%. Moreover, the LOGP_HCOOH in data set [1] (setting [4]) came out at 3.68.
Consider `O=C(NC1CCCC1)c1cc(-c2ccc(OC(F)(F)F)cc2)cc(NC(=O)C2CC2)n1` [Example I-169], for which the “efficacy (caterpillars killed)” value in the data set on Spodoptera frugiperda (application rate 100 g/ha) and in the data set on Spodoptera frugiperda (application rate 500 g/ha) was 100% in each case. For the same compound, in data set [1] (setting [4]), the LOGP_HCOOH turned out to be 4.35. This compound also gave an LOGP_NEUTRAL in data set [1] (setting [3]) of 4.22.
With `O=C(NCC1CCCC1)c1cc(-c2ccc(OC(F)(F)F)cc2)cc(NC(=O)C2CC2)n1` [Example I-170], the “efficacy (caterpillars killed)” value turned out to be 83% with Spodoptera frugiperda (application rate 100 g/ha) and 100% with Spodoptera frugiperda (application rate 500 g/ha). The same compound showed an LOGP_HCOOH in data set [1] (setting [4]) of 4.68. Moreover, the LOGP_NEUTRAL in data set [1] (setting [3]) was determined as 4.55.
